Values of other authors as cited in patent US9364479B2, “Use of a receptor-type kinase modulator for treating polycystic kidney disease” (SYMPHONY EVOLUTION, INC., priority 2010, dated 2016).

How the values were obtained:
PKD model = conditions: in vivo; cited from earlier work
bpk mice = conditions: cited from earlier work
bpk mice or PCK rat = conditions: cited from earlier work

**Q.** Which “cyst formation and renal function, in words” value (PKD model) does the source give for `CCOc1cc2ncc(C#N)c(Nc3ccc(F)c(Cl)c3)c2cc1NC(=O)/C=C/CN(C)C` [EKB-569] here?
**A.** effective in reducing cyst formation and maintaining normal renal function

**Q.** For `CC#CC(=O)Nc1ccc2ncnc(Nc3cccc(Br)c3)c2c1` [EKI-785], which “progression of PKD, in words” value (bpk mice) is on record?
**A.** effective in preventing the progression of PKD

**Q.** For `COc1cc(Nc2c(C#N)cnc3cc(OCCCN4CCN(C)CC4)c(OC)cc23)c(Cl)cc1Cl` [SKI-606], which “renal cyst formation and biliary duct abnormalities, in words” value (bpk mice or PCK rat) is on record?
**A.** ameliorated renal cyst formation and biliary duct abnormalities
